According to paper PMC5974779, “Prediction of Drug-Induced Hepatotoxicity Using Long-Term Stable Primary Hepatic 3D Spheroid Cultures in Chemically Defined Conditions” (Toxicological Sciences, 2018):
Read-outs that look alike come from different tables or passages of the source.

Tests used:
rats = tested on: rats; parameters: method as in McGill et al., 2012b; conditions: in vivo; ref McGill et al., 2012b; cited from earlier work
[1] = cited from earlier work; for Extent of hepatic metabolism: ref DrugBank and Prescribers' Digital Reference database
PHH 2D sandwich cultures = conditions: cited from earlier work; for 2Dsw (Xu 2008) 100x: PHH 2D sandwich cultures, 100x Cmax, ref Xu 2008
[2] = tested on: PHH spheroids (hanging-drop); conditions: PHH hanging-drop spheroids, 100x Cmax; ref Proctor 2017; cited from earlier work
clinical DILI in man = conditions: cited from earlier work; for FDA (Severity): FDA drug labeling DILI concern; for Clinical DILI classification (Figure 5): structural analogue pairs, 2008 and others; for Guo et al. (2005) / Suzuki et al. (2010): DILI classification score; for Guo et al. (2005): ref Guo et al. (2005); for Suzuki et al. (2010): ref Suzuki et al. (2010)
[3] = therapeutic total cmax; ref PMID; cited from earlier work
[4] = tested on: primary human hepatocytes (PHH) 3D spheroids; test: CD-spheroid hepatotoxicity: ATP viability (CellTiter-Glo) of PHH 3D spheroids after 14 days repeated exposure at 1×, 5×, 20× cmax
[5] = tested on: C57BL/6 mouse primary hepatocyte 3D spheroids; test: Animal hepatocyte spheroid hepatotoxicity (ATP viability, 14 days), C57BL/6 (BL6) mouse; type: cell-based; conditions: C57BL/6 mouse hepatocyte spheroids, 1×, 5×, 20× human cmax, 14 days
[6] = tested on: CD1 mouse primary hepatocyte 3D spheroids; test: Animal hepatocyte spheroid hepatotoxicity (ATP viability, 14 days), CD1 mouse; type: cell-based; conditions: CD1 mouse hepatocyte spheroids, 1×, 5×, 20× human cmax, 14 days
[7] = tested on: Wistar rat primary hepatocyte 3D spheroids; test: Animal hepatocyte spheroid hepatotoxicity (ATP viability, 14 days), Wistar rat; type: cell-based; conditions: Wistar rat hepatocyte spheroids, 1×, 5×, 20× human cmax, 14 days
[8] = tested on: Gottingen minipig primary hepatocyte 3D spheroids; test: Animal hepatocyte spheroid hepatotoxicity (ATP viability, 14 days), minipig; type: cell-based; conditions: minipig hepatocyte spheroids, 1×, 5×, 20× human cmax, 14 days
[9] = tested on: rhesus monkey primary hepatocyte 3D spheroids; test: Animal hepatocyte spheroid hepatotoxicity (ATP viability, 14 days), rhesus monkey; type: cell-based; conditions: rhesus monkey hepatocyte spheroids, 1×, 5×, 20× human cmax, 14 days
[10] = tested on: primary human hepatocytes (PHH) 3D spheroids
[11] = human liver, ref Yoon et al., 2016
[12] = FDA drug labeling DILI score, ref Chen et al., 2011
[13] = clinical DILI classification in man (POS/NEG)
[14] = clinical DILI classification used in this study, Supplementary Table 2, ref Chen et al., 2011, Guo et al., 2005, O'Brien et al., 2006, Sakatis et al., 2012, Suzuki et al., 2010, Xu et al., 2008
[15] = clinical DILI classification, Supplementary Table 1, ref Chen et al., 2011, Guo et al., 2005, O'Brien et al., 2006, Sakatis et al., 2012, Suzuki et al., 2010, Xu et al., 2008
[16] = reported pattern of liver damage, Supplementary Table 2, ref literature
[17] = ref Chen et al., 2011, Xu et al.
[18] = clinical DILI classification, ref Xu et al. (2008)
[19] = clinical hepatotoxicity classification, ref Sakatis et al. (2012)

SMILES | Extent of hepatic metabolism [1] | 2Dsw (Xu 2008) 100x (PHH 2D sandwich cultures) | Hanging-drop spheroids (Proctor 2017) 100x [2] | FDA (Severity) (clinical DILI in man; ref Chen et al., 2011) | FDA (0-8) (clinical DILI in man; [12]) | DILI in vivo (clinical DILI in man; [13]) | Classified as (clinical DILI in man; [14]) | DILI in vivo (clinical DILI in man; [15]) | Type of DILI (clinical DILI in man; [16]) | Clinical DILI classification (Figure 5) (clinical DILI in man; [17]) | Cmax [3] | hepatotoxicity evaluation in spheroids [5] | hepatotoxicity evaluation in spheroids [6] | hepatotoxicity evaluation in spheroids [7] | hepatotoxicity evaluation in spheroids [8] | hepatotoxicity evaluation in spheroids [9] | Chemically defined spheroids (this study) 20x [10] | Guo et al. (2005) (clinical DILI in man) | Suzuki et al. (2010) (clinical DILI in man) | Xu et al. (2008) (clinical DILI in man; [18]) | also measured
CC(=O)Nc1ccc(O)cc1 [Acetaminophen] | Extensive | Positive | Positive |  |  |  |  |  |  |  |  |  |  |  |  |  |  |  |  |  | acetaminophen-induced hepatotoxicity in rats (rats): resistant to acetaminophen-induced hepatotoxicity; fraction inactivated by sulfation or glucuronidation [1, 11]: around 90%; fraction metabolically activated by CYP2E1 and CYP3A4 to NAPQI [1, 11]: 5%–10%
COC(c1ccccc1)(c1ccccc1)[C@H](Oc1nc(C)cc(C)n1)C(=O)O [Ambrisentan] | Extensive |  | Negative | less DILI concern | 7 | NEG | NEG | NEG | Non-hepatotoxic | DILI negative | 2.27 µM |  |  |  |  |  |  |  |  |  | Chemically defined spheroids (this study) 20x ([4]; PHH spheroids in chemically defined conditions, 20x Cmax): Negative; hepatotoxicity evaluation in CD-spheroids ([4]; PHH spheroids, 1×, 5×, 20× cmax, 14 days repeated exposure, ATP): did not result in a significant reduction of hepatocyte viability
CC(C)C(=O)Nc1ccc([N+](=O)[O-])c(C(F)(F)F)c1 [Flutamide] | Extensive | Negative | Positive | most DILI concern | 8 | POS | POS | POS | Hepatocellular injury, Cholestatic injury or Mixed hepatitis |  | 5.43 µM | flagged as hepatotoxic | flagged as hepatotoxic | flagged as hepatotoxic | flagged as hepatotoxic | flagged as hepatotoxic | Positive | 3 | 2 | Positive | O'Brien et al. (2003) (clinical DILI in man; in vivo): Severely; Sakatis et al. (2012) (clinical DILI in man; in vivo): Hepatotoxic; hepatotoxicity detection in 2D sandwich cultures of PHH (PHH 2D sandwich cultures; 100× cmax, 24 h, high content imaging, ref Xu et al., 2008): liver toxicity was not recognized
CCc1nn(CCCN2CCN(c3cccc(Cl)c3)CC2)c(=O)n1CCOc1ccccc1 [Nefazodone] | Extensive | Positive | Positive |  | 8 | POS | POS | POS | Hepatocellular injury | DILI positive | 3.95 µM | flagged as hepatotoxic | flagged as hepatotoxic | flagged as hepatotoxic | flagged as hepatotoxic | flagged as hepatotoxic | Positive | 3 | 3 | Positive | hepatotoxicity evaluation in CD-spheroids ([10]; human, 14 days): severe toxicity at 5× and 20× of the therapeutic exposure levels; Sakatis et al. (2012) (clinical DILI in man; [19]): Hepatotoxic
C1CCC(C(CC2CCCCN2)C2CCCCC2)CC1 (stereo not shown) [Perhexiline] | Extensive | Positive | Positive |  | Withdrawn | POS | POS | POS | Hepatocellular injury |  |  | flagged as hepatotoxic | flagged as hepatotoxic | flagged as hepatotoxic | flagged as hepatotoxic | flagged as hepatotoxic | Positive |  | 3 | Positive | Sakatis et al. (2012) (clinical DILI in man; [19]): Hepatotoxic
CC(CN1c2ccccc2Sc2ccccc21)N(C)C (stereo not shown) [Promethazine] | Extensive | Negative |  |  | 5 | NEG | NEG | NEG | Non-hepatotoxic |  | 0.06 µM |  |  | indicated toxicity |  |  | Negative | 3 |  | Negative | 
O=C(c1ccc(OCCN2CCCCC2)cc1)c1c(-c2ccc(O)cc2)sc2cc(O)ccc12 [Raloxifene] |  | Negative |  |  |  |  |  |  |  |  | 0.001 µM |  | incorrectly flagged as hepatotoxic |  |  | mild but significant toxicity | Negative |  |  |  | Classified as (clinical DILI in man; in vivo): NEG; Clinical DILI class (panel heading of Figure 4) (clinical DILI in man; in vivo): DILI negative; DILI in vivo (clinical DILI in man; in vivo): NEG; FDA (0-8) (clinical DILI in man; in vivo): 0; Sakatis et al. (2012) (clinical DILI in man; in vivo): non-hepatotixic; Type of DILI (clinical DILI in man; in vivo): Non-hepatotoxic; Xu et al. (2008) (clinical DILI in man; in vivo): Negative
Cc1c(C)c2c(c(C)c1O)CCC(C)(COc1ccc(CC3SC(=O)NC3=O)cc1)O2 (stereo not shown) [Troglitazone] | Extensive | Positive | Positive | most DILI concern | Withdrawn | POS | POS | POS | Hepatocellular injury or Cholestatic injury | DILI positive | 6.08 µM | flagged as hepatotoxic | flagged as hepatotoxic | flagged as hepatotoxic | flagged as hepatotoxic | flagged as hepatotoxic | Positive | 3 | 3 | Positive | hepatotoxicity evaluation in CD-spheroids [10]: clearly detected; Sakatis et al. (2012) (clinical DILI in man; [19]): Hepatotoxic
